Values of other authors as cited in patent US9968621B2, “Parenteral compositions of celecoxib” (Dr. Reddy's Laboratories Ltd., priority 2014, dated 2018).

Conditions: after an oral dose

Time of peak plasma levels: approximately 3 hrs
SMILES: Cc1ccc(-c2cc(C(F)(F)F)nn2-c2ccc(S(N)(=O)=O)cc2)cc1 [Celecoxib, 4-[5-(4-methylphenyl)-3-(trifluoromethyl)-1H-pyrazol-1-yl] benzenesulfonamide]
